# Values of other authors in US20220000750A1, “THE PROCESS FOR THE PREPARATION AND USE OF HAIR TREATMENT COMPOSITIONS CONTAINING ORGANIC C1-C6 ALKOXY SILANES” (Henkel AG & Co. KGaA, priority 2019, published 2022).
# Settings: 25° C.
solubility in water (in words),Structure (SMILES),solubility in water
,CCN(Cc1cccc(S(=O)(=O)[O-])c1)c1ccc(C(=C2C=CC(=[N+](CC)Cc3cccc(S(=O)(=O)[O-])c3)C=C2)c2ccccc2S(=O)(=O)[O-])cc1.[Na+].[Na+] [Acid Blue 9],more than 20 % by weight
highly soluble,"O=C([O-])C1=NN(c2ccc(S(=O)(=O)[O-])cc2)C(=O)C1N=Nc1ccc(S(=O)(=O)[O-])cc1.[Na+].[Na+].[Na+] (centres unmarked) [Acid Yellow 23, trisodium salt of 4,5-dihydro-5-oxo-1-(4-sulfophenyl)-4-((4-sulfophenyl)azo)-1H-pyrazole-3-carboxylic acid]",
,"O=S(=O)([O-])c1ccc(N=Nc2c(O)ccc3ccccc23)cc1.[Na+] [Acid Orange 7, sodium salt of 4-[(2-hydroxy-1-naphthyl)azo]benzene sulphonate]",more than 7 g/L
,"Nc1cc(S(=O)(=O)[O-])cc2cc(S(=O)(=O)[O-])c(N=Nc3ccccc3)c(O)c12.[Na+].[Na+] [Acid Red 33, diantrium salt of 5-amino-4-hydroxy-3-(phenylazo)-naphthalene-2,7-disulphonate]",2.5 g/L
,"O=C([O-])c1c(Cl)c(Cl)c(Cl)c(Cl)c1-c1c2c(Br)cc(=O)c(Br)c-2oc2c(Br)c(O)cc(Br)c12.O=C([O-])c1c(Cl)c(Cl)c(Cl)c(Cl)c1-c1c2c(Br)cc(=O)c(Br)c-2oc2c(Br)c(O)cc(Br)c12.[Na+].[Na+] [Acid Red 92, disodium salt of 3,4,5,6-tetrachloro-2-(1,4,5,8-tetrabromo-6-hydroxy-3-oxoxanthen-9-yl)benzoic acid]",greater than 10 g/L
